# Experimental data as given in PubChem BioAssay (NCI).
#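 Cells were grown in 96-well plates and exposed to each compound for 48 hours at five concentrations; endpoints were interpolated linearly between bracketing concentrations, or set to the highest concentration if not reached. TGI is the concentration that stops growth completely.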
# Tests used:
# Experiment in all cases: NCI tumour cell line growth inhibition, 48 h
# MDA-MB-231 breast = system: MDA-MB-231 breast
# ACHN renal = system: ACHN renal
# RXF 393 renal = system: RXF 393 renal
# NCI-H226 lung = system: NCI-H226 lung
# SNB-75 CNS = system: SNB-75 CNS
# OVCAR-8 ovarian = system: OVCAR-8 ovarian
# MCF7 breast = system: MCF7 breast
# KM12 colon = system: KM12 colon
# PC-3 prostate = system: PC-3 prostate
# UACC-257 melanoma = system: UACC-257 melanoma
# HOP-92 NSCLC = system: HOP-92 NSCLC
# HCC-2998 colon = system: HCC-2998 colon
# HT29 colon = system: HT29 colon
# DU-145 prostate = system: DU-145 prostate
# HOP-62 NSCLC = system: HOP-62 NSCLC
# CAKI-1 renal = system: CAKI-1 renal
# M14 melanoma = system: M14 melanoma
# SF-539 CNS = system: SF-539 CNS
# HCT-15 colon = system: HCT-15 colon
# RPMI-8226 leukemia = system: RPMI-8226 leukemia
# IGROV1 ovarian = system: IGROV1 ovarian
# SR leukemia = system: SR leukemia
# HL-60(TB) leukemia = system: HL-60(TB) leukemia
# MALME-3M melanoma = system: MALME-3M melanoma
# SK-OV-3 ovarian = system: SK-OV-3 ovarian
# MOLT-4 leukemia = system: MOLT-4 leukemia
# 786-0 renal = system: 786-0 renal
# SN12C renal = system: SN12C renal
# SK-MEL-28 melanoma = system: SK-MEL-28 melanoma
# MDA-N = system: MDA-N
# NCI-H23 lung = system: NCI-H23 lung
# HCT-116 colon = system: HCT-116 colon
# OVCAR-4 ovarian = system: OVCAR-4 ovarian
# TK-10 renal = system: TK-10 renal
# NCI/ADR-RES ovarian = system: NCI/ADR-RES ovarian
# T-47D breast = system: T-47D breast
# HS 578T breast = system: HS 578T breast
# SF-268 CNS = system: SF-268 CNS
# UO-31 renal = system: UO-31 renal
# SK-MEL-2 melanoma = system: SK-MEL-2 melanoma
# NCI-H522 lung = system: NCI-H522 lung
# OVCAR-3 ovarian = system: OVCAR-3 ovarian
# LOX IMVI melanoma = system: LOX IMVI melanoma
# NCI-H460 lung = system: NCI-H460 lung
# K-562 leukemia = system: K-562 leukemia
# COLO 205 colon = system: COLO 205 colon
# UACC-62 melanoma = system: UACC-62 melanoma
# A549 NSCLC = system: A549 NSCLC
# MDA-MB-435 = system: MDA-MB-435
# A498 renal = system: A498 renal
# EKVX NSCLC = system: EKVX NSCLC
# SK-MEL-5 melanoma = system: SK-MEL-5 melanoma
# SF-295 CNS = system: SF-295 CNS
# U251 CNS = system: U251 CNS
# BT-549 breast = system: BT-549 breast
# SNB-19 CNS = system: SNB-19 CNS
# SW-620 colon = system: SW-620 colon
# OVCAR-5 ovarian = system: OVCAR-5 ovarian
compound,measurement,setting,value
Cc1ccc(NC(c2ccccc2)P(=O)(c2ccccc2)c2ccccc2)cc1 (stereo not drawn),TGI,MDA-MB-231 breast,> 100 µM
same,TGI,ACHN renal,> 100 µM
same,TGI,RXF 393 renal,> 100 µM
same,TGI,NCI-H226 lung,> 100 µM
same,TGI,SNB-75 CNS,41.3 µM
same,TGI,OVCAR-8 ovarian,> 100 µM
same,TGI,MCF7 breast,> 100 µM
same,TGI,KM12 colon,> 100 µM
same,TGI,PC-3 prostate,> 100 µM
same,TGI,UACC-257 melanoma,> 100 µM
same,TGI,HOP-92 NSCLC,67.4 µM
same,TGI,HCC-2998 colon,> 100 µM
same,TGI,HT29 colon,> 100 µM
same,TGI,DU-145 prostate,> 100 µM
same,TGI,HOP-62 NSCLC,> 100 µM
same,TGI,CAKI-1 renal,> 100 µM
same,TGI,M14 melanoma,> 100 µM
same,TGI,SF-539 CNS,> 100 µM
same,TGI,HCT-15 colon,> 100 µM
same,TGI,RPMI-8226 leukemia,> 100 µM
same,TGI,IGROV1 ovarian,> 100 µM
same,TGI,SR leukemia,> 100 µM
same,TGI,HL-60(TB) leukemia,> 100 µM
same,TGI,MALME-3M melanoma,> 100 µM
same,TGI,SK-OV-3 ovarian,> 100 µM
same,TGI,MOLT-4 leukemia,> 100 µM
same,TGI,786-0 renal,> 100 µM
same,TGI,SN12C renal,> 100 µM
same,TGI,SK-MEL-28 melanoma,> 100 µM
same,TGI,MDA-N,> 100 µM
same,TGI,NCI-H23 lung,> 100 µM
same,TGI,HCT-116 colon,> 100 µM
same,TGI,OVCAR-4 ovarian,> 100 µM
same,TGI,TK-10 renal,> 100 µM
same,TGI,NCI/ADR-RES ovarian,> 100 µM
same,TGI,T-47D breast,> 100 µM
same,TGI,HS 578T breast,> 100 µM
same,TGI,SF-268 CNS,> 100 µM
same,TGI,UO-31 renal,> 100 µM
same,TGI,SK-MEL-2 melanoma,> 100 µM
same,TGI,NCI-H522 lung,> 100 µM
same,TGI,OVCAR-3 ovarian,> 100 µM
same,TGI,LOX IMVI melanoma,> 100 µM
same,TGI,NCI-H460 lung,> 100 µM
same,TGI,K-562 leukemia,> 100 µM
same,TGI,COLO 205 colon,> 100 µM
same,TGI,UACC-62 melanoma,> 100 µM
same,TGI,A549 NSCLC,> 100 µM
same,TGI,MDA-MB-435,> 100 µM
same,TGI,A498 renal,> 100 µM
same,TGI,EKVX NSCLC,> 100 µM
same,TGI,SK-MEL-5 melanoma,> 100 µM
same,TGI,SF-295 CNS,> 100 µM
same,TGI,U251 CNS,> 100 µM
same,TGI,BT-549 breast,> 100 µM
same,TGI,SNB-19 CNS,> 100 µM
same,TGI,SW-620 colon,> 100 µM
same,TGI,OVCAR-5 ovarian,> 100 µM
